According to patent US9988390B2, “Pyrimidone derivatives and their use in the treatment, amelioration or prevention of a viral disease” (F. Hoffmann-La Roche AG, priority 2015, dated 2018):
Structures can show the parent of a compound that is named as a salt.

System: influenza A virus (A/WSN/33 NanoLuc reporter virus) in A549 cells
Test: microbe, parasite or virus in culture
Assay type: cell-based
Conditions: A549, 24 h, read-out: IC50 values of viral replication inhibition in a cell-based Luciferase Reporter Assay (LRA)

Row | Structure (SMILES) | IC50
1 | CC(C)N1C[C@H](C(c2ccccc2)c2ccccc2)n2c(NCc3ccccc3)nc(=O)c(O)c2C1=O [Example 1a-1, (4S)-4-Benzhydryl-6-(benzylamino)-9-hydroxy-2-isopropyl-3,4-dihydropyrazino[1,2-c]pyrimidine-1,8-dione] | 153 nM
2 | COc1ccc(CNc2nc(=O)c(O)c3n2[C@@H](C(c2ccccc2)c2ccccc2)CN(C(C)C)C3=O)cc1 [Example 1a-2, (4S)-4-Benzhydryl-9-hydroxy-2-isopropyl-6-[(4-methoxyphenyl)methylamino]-3,4-dihydropyrazino[1,2-c]pyrimidine-1,8-dione formate] | 2070 nM
3 | CC(C)N1C[C@H](C(c2ccccc2)c2ccccc2)n2c(N)nc(=O)c(O)c2C1=O [Example 1a-3, (4S)-6-Amino-4-benzhydryl-9-hydroxy-2-isopropyl-3,4-dihydropyrazino[1,2-c]pyrimidine-1,8-dione] | > 50000 nM
4 | COc1nc(=O)c(O)c2n1[C@@H](C(c1ccccc1)c1ccccc1)CN(C(C)C)C2=O [Example 1a-4, (4S)-4-Benzhydryl-9-hydroxy-2-isopropyl-6-methoxy-3,4-dihydropyrazino[1,2-c]pyrimidine-1,8-dione] | 14 nM
5 | CC(C)N1C[C@H](C2c3ccccc3CCc3ccccc32)n2c(N)nc(=O)c(O)c2C1=O [Example 1a-5, (4S)-6-Amino-4-(10,11-dihydro-5H-dibenzo[a,d][7]annulen-5-yl)-9-hydroxy-2-(propan-2-yl)-3,4-dihydro-2H-pyrazino[1,2-c]pyrimidine-1,8-dione] | > 50000 nM
6 | CC(C)N1C[C@H](C(c2ccccc2)c2ccccc2)n2c(O)nc(=O)c(O)c2C1=O [Example 1a-6, (4S)-4-Benzhydryl-6,9-dihydroxy-2-isopropyl-3,4-dihydropyrazino[1,2-c]pyrimidine-1,8-dione] | 218 nM
7 | CCOc1nc(=O)c(O)c2n1[C@@H](C(c1ccccc1)c1ccccc1)CN(C(C)C)C2=O [Example 1a-7, (4S)-4-Benzhydryl-6-ethoxy-9-hydroxy-2-isopropyl-3,4-dihydropyrazino[1,2-c]-pyrimidine-1,8-dione] | 69 nM
8 | COc1nc(=O)c(O)c2n1[C@@H](C1c3ccccc3CCc3ccccc31)CN(C(C)C)C2=O [Example 1a-8, (4S)-4-(10,11-Dihydro-5H-dibenzo[a,d][7]annulen-5-yl)-9-hydroxy-6-methoxy-2-(propan-2-yl)-3,4-dihydro-2H-pyrazino[1,2-c]pyrimidine-1,8-dione] | 6 nM
9 | COc1nc(=O)c(O)c2n1[C@@H](C1c3ccccc3CCc3ccccc31)CN(C)C2=O [Example 1a-9, (4S)-4-(10,11-Dihydro-5H-dibenzo[a,d][7]annulen-5-yl)-9-hydroxy-6-methoxy-2-methyl-3,4-dihydro-2H-pyrazino[1,2-c]pyrimidine-1,8-dione] | 6 nM
10 | CC(C)N1C[C@H](C2c3ccccc3CCc3ccccc32)n2c(O)nc(=O)c(O)c2C1=O [Example 1a-10, (4S)-4-(10,11-Dihydro-5H-dibenzo[a,d][7]annulen-5-yl)-6,9-dihydroxy-2-(propan-2-yl)-3,4-dihydro-2H-pyrazino[1,2-c]pyrimidine-1,8-dione] | 98 nM
11 | CN1C[C@H](C2c3ccccc3CCc3ccccc32)n2c(O)nc(=O)c(O)c2C1=O [Example 1a-11, (4S)-4-(10,11-Dihydro-5H-dibenzo[a,d][7]annulen-5-yl)-6,9-dihydroxy-2-methyl-3,4-dihydro-2H-pyrazino[1,2-c]pyrimidine-1,8-dione] | 128 nM
12 | CCOc1nc(=O)c(O)c2n1[C@@H](C1c3ccccc3CCc3ccccc31)CN(C(C)C)C2=O [Example 1a-12, (4S)-4-(10,11-Dihydro-5H-dibenzo[a,d][7]annulen-5-yl)-6-ethoxy-9-hydroxy-2-(propan-2-yl)-3,4-dihydro-2H-pyrazino[1,2-c]pyrimidine-1,8-dione] | 24 nM
13 | CC(C)N1C[C@H](C(c2ccccc2)c2ccccc2)n2c(OCc3ccccc3)nc(=O)c(O)c2C1=O [Example 1a-13, (4S)-4-Benzhydryl-6-benzyloxy-9-hydroxy-2-isopropyl-3,4-dihydropyrazino[1,2-c]pyrimidine-1,8-dione] | 8320 nM
14 | CCCCOc1nc(=O)c(O)c2n1[C@@H](C(c1ccccc1)c1ccccc1)CN(C(C)C)C2=O [Example 1a-15, (4S)-4-Benzhydryl-6-butoxy-9-hydroxy-2-isopropyl-3,4-dihydropyrazino[1,2-c]pyrimidine-1,8-dione] | 15300 nM
15 | CC(=O)Nc1nc(=O)c(O)c2n1[C@@H](C(c1ccccc1)c1ccccc1)CN(C(C)C)C2=O [Example 1a-16, N-[(4S)-4-Benzhydryl-9-hydroxy-2-isopropyl-1,8-dioxo-3,4-dihydropyrazino[1,2-c]pyrimidin-6-yl]acetamide] | 23 nM
16 | CC(C)N1C[C@H](C(c2ccccc2)c2ccccc2)n2c(NS(C)(=O)=O)nc(=O)c(O)c2C1=O [Example 1a-17, N-[(4S)-4-benzhydryl-9-hydroxy-2-isopropyl-1,8-dioxo-3,4-dihydropyrazino[1,2-c]-pyrimidin-6-yl]methanesulfonamide] | 1670 nM
17 | COc1nc(=O)c(O)c2n1C(C1c3cccc(F)c3CCc3c(F)cccc31)CN(C(C)C)C2=O (stereo not drawn) [Example 1a-20, 4-(1,9-Difluoro-10,11-dihydro-5H-dibenzo[a,d][7]annulen-5-yl)-9-hydroxy-6-methoxy-2-(propan-2-yl)-3,4-dihydro-2H-pyrazino[1,2-c]pyrimidine-1,8-dione] | 16 nM
18 | COc1nc(=O)c(O)c2n1[C@@H](C1c3cccc(F)c3CCc3c(F)cccc31)[C@H](C)N(C)C2=O [Example 1a-21, (3S,4S)-4-(1,9-Difluoro-10,11-dihydro-5H-dibenzo[a,d][7]annulen-5-yl)-9-hydroxy-6-methoxy-2,3-dimethyl-3,4-dihydro-2H-pyrazino[1,2-c]pyrimidine-1,8-dione] | 15 nM
19 | CC(C)N1C[C@H](C(c2ccccc2)c2ccccc2)n2c(c(O)c(=O)n(C)c2=O)C1=O [Example 1b-1, (4S)-4-Benzhydryl-9-hydroxy-2-isopropyl-7-methyl-3,4-dihydropyrazino[1,2-c]pyrimidine-1,6,8-trione] | 1660 nM
20 | CC(C)N1C[C@H](C(c2ccccc2)c2ccccc2)n2c(c(O)c(=O)n(Cc3ccccc3)c2=O)C1=O [Example 1b-2, (4S)-4-Benzhydryl-7-benzyl-9-hydroxy-2-isopropyl-3,4-dihydropyrazino[1,2-c]pyrimidine-1,6,8-trione] | 4300 nM
21 | CC(C)N1C[C@H](C2c3ccccc3CCc3ccccc32)n2c(NS(C)(=O)=O)nc(=O)c(O)c2C1=O [Ia-22, N-[(4S)-4-(6,11-dihydro-5H-dibenzo[1,2-a:2′,1′-d][7]annulen-11-yl)-9-hydroxy-2-isopropyl-1,8-dioxo-3,4-dihydropyrazino[1,2-c]pyrimidin-6-yl]methanesulfonamide] | 144 nM
22 | CSc1nc(=O)c(O)c2n1[C@@H](C(c1ccccc1)c1ccccc1)CN(C(C)C)C2=O [Ia-23, (4S)-4-Benzhydryl-9-hydroxy-2-isopropyl-6-methylsulfanyl-3,4-dihydropyrazino[1,2-c]pyrimidine-1,8-dione] | 36 nM
23 | CCSc1nc(=O)c(O)c2n1[C@@H](C(c1ccccc1)c1ccccc1)CN(C(C)C)C2=O [Ia-24, (4S)-4-Benzhydryl-6-ethylsulfanyl-9-hydroxy-2-isopropyl-3,4-dihydropyrazino[1,2-c]pyrimidine-1,8-dione] | 11900 nM
24 | CC(C)N1CC(C2c3cccc(F)c3CCc3c(F)cccc32)n2c(O)nc(=O)c(O)c2C1=O (stereo not drawn) [Ia-25, 4-(4,7-Difluoro-6,11-dihydro-5H-dibenzo[1,3-b:3′,1′-e][7]annulen-11-yl)-6,9-dihydroxy-2-isopropyl-3,4-dihydropyrazino[1,2-c]pyrimidine-1,8-dione] | 86 nM
25 | CC(C)N1C[C@H](C(c2ccccc2)c2ccccc2)n2c([S+](C)[O-])nc(=O)c(O)c2C1=O (stereo partly drawn) [Ia-26, (4S)-4-Benzhydryl-9-hydroxy-2-isopropyl-6-methylsulfinyl-3,4-dihydropyrazino[1,2-c]pyrimidine-1,8-dione] | 127 nM
26 | CC(C)N1C[C@H](C(c2ccccc2)c2ccccc2)n2cnc(=O)c(O)c2C1=O [Ia-27, (4S)-4-Benzhydryl-9-hydroxy-2-isopropyl-3,4-dihydropyrazino[1,2-c]pyrimidine-1,8-dione] | 232 nM
27 | CC(C)N1C[C@H](C(c2ccccc2)c2ccccc2)n2c(S)nc(=O)c(O)c2C1=O [Ia-28, (4S)-4-benzhydryl-9-hydroxy-2-isopropyl-6-sulfanyl-3,4-dihydropyrazino[1,2-c]pyrimidine-1,8-dione] | 61 nM
28 | CC(C)N1C[C@H](C2c3ccccc3CCc3ccccc32)n2cnc(=O)c(O)c2C1=O [Ia-29, (4S)-4-(6,11-Dihydro-5H-dibenzo[2,1-b:1′,2′-e][7]annulen-11-yl)-9-hydroxy-2-isopropyl-3,4-dihydropyrazino[1,2-c]pyrimidine-1,8-dione] | 22 nM
29 | CSc1nc(=O)c(O)c2n1[C@@H](C1c3ccccc3CCc3ccccc31)CN(C(C)C)C2=O [Ia-30, (4S)-4-(6,11-Dihydro-5H-dibenzo[2,1-b:1′,2′-e][7]annulen-11-yl)-9-hydroxy-2-isopropyl-6-methylsulfanyl-3,4-dihydropyrazino[1,2-c]pyrimidine-1,8-dione] | 17 nM

Same assay, conditions: A549, isomers identified by X-ray analysis, read-out: IC50

Row | Structure (SMILES) | IC50
30 | COc1nc(=O)c(O)c2n1[C@@H]([C@H]1c3ccccc3CSc3ccccc31)CN(C(C)C)C2=O (single isomer, unassigned) [Example 14] | 2 nM
31 | COc1nc(=O)c(O)c2n1[C@H]([C@@H]1c3ccccc3CSc3ccccc31)CN(C(C)C)C2=O (single isomer, unassigned) [Example 15] | 34 nM
32 | COc1nc(=O)c(O)c2n1[C@@H]([C@@H]1c3ccccc3CSc3ccccc31)CN(C(C)C)C2=O (single isomer, unassigned) [Example 16] | 4 nM
33 | COc1nc(=O)c(O)c2n1[C@H]([C@H]1c3ccccc3CSc3ccccc31)CN(C(C)C)C2=O (single isomer, unassigned) [Example 17] | 28 nM
